Source: US20220105061A1, “COMPOSITIONS AND METHODS FOR TREATING RESPIRATORY INSUFFICIENCY” (The Regents of the University of California, priority 2019, published 2022)
Entries after “also recorded” stand apart in the source; their conditions may differ.

Test system: Serpinh1 Prx1-cre conditional KO mice
Assay: Prenatal 4-PBA treatment of pregnant females in the Serpinh1 Prx1-cre conditional KO (Hsp47-Prx1) lethal osteogenesis imperfecta mouse model
Type: in vivo
Details: for perinatal lethality due to respiratory insufficiency: Hsp47-Prx1 model
Text: Mutations in SERPINH1 (HSP47) cause osteogenesis imperfecta (OI). Patients with mutations in these genes are severely affected by bone fragility and pulmonary dysfunction. Serpinh1 Prx1-cre conditional KO mice were generated. These animals die immediately after birth due to respiratory insufficiency. The Prx1 gene is expressed in lungs' and limbs' mesenchymal lineages, causing phenotypes in both the pulmonary and skeletal system. Right after birth, all affected animals become cyanotic and die.
Animals were treated with 4-PBA. At least 12 pregnant females (SerpinH1−/− crossed with males Serpinh1+/−Prx1 carriers), who were expected to give birth to 25% affected pups (Serpinh1−/−Prx1 positive) were treated with 1 gr/Kg/day of 4-PBA in drinking water since the gestational age of E14 until birth.
Respiratory function was analyzed in treated vs. control animals by cyanotic observations, X-rays, lung floatability test, whole body oxymetry and histology. Multiple dosages were tested: 1, 2 and 5 gr/Kg/day, 1 gr/Kg/day being the minimum dosage to obtain the effect in 100% of individuals. 5 gr/Kg/day was discarded as 2 of 12 treated pups in two independent litters died without presenting the phenotype and showing hematomas. Other pregnancy stages were also tested starting the treatment from E10 to E17.
4-PBA treatment rescue perinatal lethality due to respiratory insufficiency in Hsp47-Prx1 model. A. X-Rays show a dark spot corresponding with air in the lungs in healthy animals (red arrows). […] B. Histological architecture is collapse in mutants (B′) but rescued in 4-PBA treated animals (B″). C. Mutants show cyanotic aspect at birth (C′). This is also rescued in 4-PBA treated animals (C″). D. Oxygen levels are rescued in treated mutants as observed by oxymeter measures right after birth.

O=C(O)CCCc1ccccc1 [4-PBA, 4-phenylbutyric acid]
individuals in which the effect was obtained (1 gr/Kg/day): 100% | survival of pups with the affected genotype born from treated mothers (1 gr/Kg/day in drinking water to pregnant females, E14 until birth, untreated affected pups die immediately after birth): around 24 hours | treated pups that died without presenting the phenotype and showing hematomas (5 gr/Kg/day, two independent litters, dosage discarded): 2 of 12 | perinatal lethality due to respiratory insufficiency (prenatal treatment): rescue | perinatal lethality due to respiratory insufficiency (prenatal treatment, listed as 4-phenylbutyric): rescues | lung histological architecture (collapsed in mutants, FIG. 1B): rescued | minimum dosage to obtain the effect in 100% of individuals (dosages tested: 1, 2 and 5 gr/Kg/day): 1 gr/Kg/day | embryo viability (mouse, in vivo): possible decreased embryo viability | unproductive pregnancies of 4 plugged females (mouse, in vivo): two | cyanosis of treated affected animals (prenatal treatment, cyanotic observations at birth): did not become cyanotic; also recorded: rescued | oxygen levels (whole body oxymetry) (prenatal treatment, oxymeter measures right after birth): normal levels of oxygen; also recorded: rescued | air in the lungs on X-rays (treated mutants, FIG. 1A): show air in the lungs | lung function improvement (treatments performed between E13 to E17): observed similarly
